According to EP0481701B1, “Treatment composition” (priority 1990, dated 1992):

Columns and labels:
Strep. sanguis (CR2b) = experiment: bacterial regrowth assay (antibacterial efficacy of Triclosan delivered in targeted liposomes); type: cell-based
Protocol: Liposomes were prepared by the reverse phase evaporation procedure referred to above incorporating Triclosan in the lipid mixture. Some of the liposome samples were prepared with concanavalin A (ConA) conjugated to their surface. Details are as follows: (a) Derivatisation of ConA with SATA 2.5µl of a stock solution containing 9.08mg N-succinimidyl-S-acetyl thioacetate (SATA) in 50µl dimethylformamide was added to ConA solution (10mg in 2.5ml phosphate (50mM) - EDTA (1mM) buffer, pH7.5) at room temperature. After reaction (15min) the derivatised protein (s-ConA) was separated from unreacted SATA by gel filtration on a Sephadex G-50 column (15 x 2cm). The s-ConA was activated by deacetylation using, for each 2ml of protein solution, 200µl of 0.1M hydroxylamine solution, made up in 2.5mM EDTA with sufficient solid Na₂HPO₄ added to bring the pH to 7.5. (b) Preparatlon of DPPE-MBS 40mg L-α-dipalmitoylphosphatidylethanolamine (DPPE) was dissolved in a mixture of 16ml dry chloroform, 2ml dry methanol and 20mg dry triethylamine. 20mg maleimidobenzoyl-N-hydroxysuccinimide ester (MBS) was added and the reaction mixture was stirred under nitrogen at room temperature for 24h, after which the organic phase was washed three times with phosphate buffered saline (PBS, pH7.3) to remove unreacted MBS. The DPPE-MBS derivative was recovered from the organic phase by rotary evaporation and was stored in a chloroform/methanol mixture (9:1 v/v) at 4°C. (c) Preparation of liposomes 27mg dipalmitoylphosphatidylcholine (DPPC), 3mg phosphatidylinositol (PI, from wheat germ) and 3mg DPPE-MBS were dissolved in 9ml chloroform/methanol mixture (4:1 v/v). […] The fractions collected were analysed for phospholipid and Triclosan by scintillation counting. Particle sizes of the liposomes were determined by photon correlation spectroscopy, following the method described in Hutchinson et al., Biochim. […] (e) Assessment of efficacy The antibacterial efficacy of Triclosan delivered in targeted liposomes was assessed using a bacterial regrowth assay. […]

[1] = solubility of Triclosan in PBS (remark in the method); type: physicochemical; conditions: PBS without ethanol
Protocol: Liposomes were prepared by the reverse phase evaporation procedure referred to above incorporating Triclosan in the lipid mixture. Some of the liposome samples were prepared with concanavalin A (ConA) conjugated to their surface. Details are as follows: (a) Derivatisation of ConA with SATA 2.5µl of a stock solution containing 9.08mg N-succinimidyl-S-acetyl thioacetate (SATA) in 50µl dimethylformamide was added to ConA solution (10mg in 2.5ml phosphate (50mM) - EDTA (1mM) buffer, pH7.5) at room temperature. After reaction (15min) the derivatised protein (s-ConA) was separated from unreacted SATA by gel filtration on a Sephadex G-50 column (15 x 2cm). The s-ConA was activated by deacetylation using, for each 2ml of protein solution, 200µl of 0.1M hydroxylamine solution, made up in 2.5mM EDTA with sufficient solid Na₂HPO₄ added to bring the pH to 7.5. […] The fractions collected were analysed for phospholipid and Triclosan by scintillation counting. Particle sizes of the liposomes were determined by photon correlation spectroscopy, following the method described in Hutchinson et al., Biochim. […] (e) Assessment of efficacy The antibacterial efficacy of Triclosan delivered in targeted liposomes was assessed using a bacterial regrowth assay. […]

## Oc1cc(Cl)ccc1Oc1ccc(Cl)cc1Cl [Triclosan in solution, 2,4,4'-trichloro-2'-hydroxy diphenyl ether]
Strep. sanguis (CR2b); 1min exposure, PBS plus human saliva (1:1), 5µg Triclosan in 100µl PBS with 10% ethanol
  % inhibition of growth incubated with saliva: 3%
Strep. sanguis (CR2b); 1min exposure, PBS, no saliva, 5µg Triclosan in 100µl PBS with 10% ethanol
  % inhibition of growth without saliva: 8%
Strep. sanguis (CR2b); relative to PBS alone, 2h exposure at 37°C, regrowth 18h, optical density at 630nm, PBS containing 10% ethanol, total Triclosan 10µg (free, liposomes with ConA) or 20µg (liposomes without ConA) in 100µl
  % inhibition of growth: 75%
[1]
  solubility in PBS alone: virtually insoluble
